Results published in patent US20260109699A1, “AZOLE DERIVATIVES AS SHP2 INHIBITORS” (IRBM S.P.A., priority 2022, published 2026).

Legend:
[1] = molecular target: T1, SHP-2 enzyme (Met1-Leu525), SHP2wt (Homo sapiens, UniProt Q06124); assay: SHP2 inhibition enzymatic assay; assay type: biochemical; settings: 0.5 nM SHP-2 activated by 500 nM IRS1 peptide, 75 μM DiFMUP substrate
T1 construct: synthetized by Origene, Met1-Leu525, cat #TP750155; purchased Origene TP750155
T1 sequence (Q06124 1-525): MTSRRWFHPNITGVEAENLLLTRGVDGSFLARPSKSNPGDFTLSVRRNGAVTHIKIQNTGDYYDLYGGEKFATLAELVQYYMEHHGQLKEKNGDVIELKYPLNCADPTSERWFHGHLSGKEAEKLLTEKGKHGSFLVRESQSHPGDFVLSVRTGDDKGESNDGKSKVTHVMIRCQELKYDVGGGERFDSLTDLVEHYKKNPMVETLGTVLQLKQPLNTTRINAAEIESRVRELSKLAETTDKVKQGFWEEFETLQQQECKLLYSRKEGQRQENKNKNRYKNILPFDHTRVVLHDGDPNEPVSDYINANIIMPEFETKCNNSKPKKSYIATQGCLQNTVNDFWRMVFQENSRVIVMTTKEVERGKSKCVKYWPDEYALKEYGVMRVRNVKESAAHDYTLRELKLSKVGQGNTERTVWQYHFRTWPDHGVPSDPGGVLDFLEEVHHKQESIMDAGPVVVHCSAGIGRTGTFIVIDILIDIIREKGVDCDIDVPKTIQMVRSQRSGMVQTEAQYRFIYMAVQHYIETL
Method: The assay was performed as described in YP Chen et al, Nature (535) 2016. Assay volume of 20 μL/well was assembled in 384 well black polystyrene low-binding microplates (Greiner), using the following buffer: 60 mM HEPES pH 7.2, 75 mM NaCl, 75 mM KCl, 1 mM EDTA pH 8, 0.05% tween-20, 5 mM DTT. The SHP-2 enzyme (synthetized by Origene, Met1-Leu525, cat #TP750155) was used at a final concentration of 0.5 nM. The enzyme was activated by 500 nM IRS1 peptide (sequence: H2N-LN(pY)IDLDLV(dPEG8)LST(pY)ASINFQK-amide; Wang et al., iScience 25,104009, Apr. 15, 2022, https://doi.org/10.1016/j.isci.2022.104009) and incubated with 75 μM DiFMUP (Sigma) as substrate.
Briefly, DMSO serially diluted testing compounds were transferred to the bottom of the assay plate. SHP2 was then added together with the IRS1 peptide 30 min post incubation, the DiFMUP substrate was added to the reaction and incubated 30 min at rt. Finally 5 μL of 160 μM bpV (potassium bisperoxo[1,10-phenanthroline]oxovanadate [V], Sigma) were added to stop and quench the reaction. The fluorescence was detected by a microplate reader (Envision, PerkinElmer) according to the DiFMUP excitation and emission wavelength. The lower the fluorescence the higher the SHP2 inhibition.
The activity of each compound dilution was calculated as percentage of inhibition between vehicle (DMSO, 0% inhibition) and no enzyme (100% inhibition). The percentage inhibition is fitted against the compound dilutions with a four-parameter logistic regression. The inflection point (i.e. the concentration at which half-maximal inhibition is achieved) is the IC50.
Legend: A indicates IC50 less or equal to 0.05 μM; B indicates IC50 greater than 0.05 μM and lower or equal to 0.3 μM.

[2] = system: phospho-ERK1/2 (Thr202/Tyr204); assay: Phospho-ERK cellular assay; assay type: cell-based; settings: Homo sapiens; KYSE-520 cells, 2 h at 37° C, TR-FRET; read-out: pERK IC50
Method: ERK phosphorylation was detected using the “Advanced phospho-ERK1/2 (Thr202/Tyr204)” TR-FRET kit (Cisbio, Cat #64AERPEG/H), following the manufacturer reagents and instructions.
Briefly, 20.000/well KYSE-520 cells (DSMZ ACC 371) were plated in 6 μL RPMI-1640 (Invitrogen) growth medium, into 384 white low-volume high base TC microplates (Greiner). After an overnight incubation, cells were treated with DMSO serial diluted compounds and incubated for 2 h at 37° C. After incubation, 2 μL/well of 4×Lysis Buffer (Cisbio 64KL1FDF), were added and incubated with cells for 30 min on gentle shaking. Finally, lysates were added with 2 μL/well of Eu cryptate (donor) and D2 (acceptor) conjugated antibodies (as provided by the Cisbio kit #64AERPEG/H) diluted 1:100 in Detection Buffer (as provided by the Cisbio kit #64AERPEG/H). Plates were then sealed and incubated at rt in the dark. After an overnight incubation, the TR-FRET signal was detected on a suitable reader (Envision, PerkinElmer).
The lower the TR-FRET signal the higher the higher the SHP2 inhibition in cells.
The activity of each compound dilution was calculated as percentage between vehicle DMSO treated cells and no cells, 0% inhibition and 100% inhibition respectively. The percentage activity is fitted against the compound dilutions with a four-parameter logistic regression. The inflection point (i.e. the concentration at which half-maximal inhibition is achieved) is the IC50.
Legend: “+” indicates IC50 equal or higher than 0.5 μM; “++” indicates IC50 less than 0.5 μM and higher or equal to 0.1 μM; “+++” indicates IC50 less than 0.1 μM.

**Q.** Which IC50 [1] does the source give for `N[C@@H]1c2ccnn2CC12CCN(c1cnc(Sc3cc(F)cc(F)c3)cn1)CC2` [Example 50, (S)-1-(5-((3,5-difluorophenyl)thio)pyrazin-2-yl)-4′H,6′H-spiro[piperidine-4,5′-pyrrolo[1,2-b]pyrazol]-4′-amine] here?
**A.** The IC50 was no more than 50 nM.

**Q.** What about the IC50 [2] of the same compound?
**A.** The IC50 was less than 100 nM.

**Q.** With `N[C@@H]1c2ccnn2CC12CCN(c1cnc(Sc3cccc(F)c3)cn1)CC2` [Example 51, (S)-1-(5-((3-fluorophenyl)thio)pyrazin-2-yl)-4′H,6′H-spiro[piperidine-4,5′-pyrrolo[1,2-b]pyrazol]-4′-amine] as the compound, how does the IC50 [1] read?
**A.** Its IC50 is no more than 50 nM.

**Q.** What about the IC50 [2] of the same compound?
**A.** Its IC50 is 100 to 500 nM.

**Q.** For `N[C@@H]1c2ccnn2CC12CCN(c1cnc(Sc3cccc4c3COC4)cn1)CC2` [Example 52, (S)-1-(5-((1,3-dihydroisobenzofuran-4-yl)thio)pyrazin-2-yl)-4′H,6′H-spiro[piperidine-4,5′-pyrrolo[1,2-b]pyrazol]-4′-amine], which IC50 [1] is on record?
**A.** Its IC50 is no more than 50 nM.

**Q.** And the IC50 [2]?
**A.** Its IC50 is less than 100 nM.

**Q.** With `N[C@@H]1c2ccnn2CC12CCN(c1cnc(Sc3cccc(F)c3F)cn1)CC2` [Example 53, (S)-1-(5-((2,3-difluorophenyl)thio)pyrazin-2-yl)-4′H,6′H-spiro[piperidine-4,5′-pyrrolo[1,2-b]pyrazol]-4′-amine] as the compound, how does the IC50 [1] read?
**A.** The IC50 was no more than 50 nM.

**Q.** What about the IC50 [2] of the same compound?
**A.** The IC50 was less than 100 nM.

**Q.** What does the source list for `N[C@@H]1c2ccnn2CC12CCN(c1cnc(Sc3ccnc(C(F)(F)F)c3Cl)cn1)CC2` [Example 54, (S)-1-(5-((3-chloro-2-(trifluoromethyl)pyridin-4-yl)thio)pyrazin-2-yl)-4′H,6′H-spiro[piperidine-4,5′-pyrrolo[1,2-b]pyrazol]-4′-amine]?
**A.** IC50 [1]: ≤ 50 nM; IC50 [2]: < 100 nM

**Q.** `COc1c(F)ccc(Sc2cnc(N3CCC4(CC3)Cn3nccc3[C@H]4N)cn2)c1F` [Example 55, (S)-1-(5-((2,4-difluoro-3-methoxyphenyl)thio)pyrazin-2-yl)-4′H,6′H-spiro[piperidine-4,5′-pyrrolo[1,2-b]pyrazol]-4′-amine] was tested. Which IC50 [1] did it give?
**A.** Its IC50 is no more than 50 nM.

**Q.** What about the IC50 [2] of the same compound?
**A.** The IC50 was less than 100 nM.

**Q.** Which IC50 [1] does the source give for `N[C@@H]1c2ccnn2CC12CCN(c1cnc(Sc3cccc(Cl)c3C(F)(F)F)cn1)CC2` [Example 56, (S)-1-(5-((3-chloro-2-(trifluoromethyl)phenyl)thio)pyrazin-2-yl)-4′H,6′H-spiro[piperidine-4,5′-pyrrolo[1,2-b]pyrazol]-4′-amine] here?
**A.** Its IC50 is no more than 50 nM.

**Q.** What about the IC50 [2] of the same compound?
**A.** Its IC50 is less than 100 nM.

**Q.** With `Cc1c(F)cccc1Sc1cnc(N2CCC3(CC2)Cn2nccc2[C@H]3N)cn1` [Example 57, (S)-1-(5-((3-fluoro-2-methylphenyl)thio)pyrazin-2-yl)-4′H,6′H-spiro[piperidine-4,5′-pyrrolo[1,2-b]pyrazol]-4′-amine] as the compound, how does the IC50 [1] read?
**A.** Its IC50 is no more than 50 nM.

**Q.** And the IC50 [2]?
**A.** The IC50 was less than 100 nM.

**Q.** Which results are given for `N[C@@H]1c2ccnn2CC12CCN(c1cnc(Sc3cccc(C(F)F)c3F)cn1)CC2` [Example 58, (S)-1-(5-((3-(difluoromethyl)-2-fluorophenyl)thio)pyrazin-2-yl)-4′H,6′H-spiro[piperidine-4,5′-pyrrolo[1,2-b]pyrazol]-4′-amine]?
**A.** IC50 [1]: ≤ 50 nM; IC50 [2]: < 100 nM

**Q.** With `N[C@@H]1c2ccnn2CC12CCN(c1cnc(Sc3ccc(C(F)F)cc3F)cn1)CC2` [Example 59, (S)-1-(5-((4-(difluoromethyl)-2-fluorophenyl)thio)pyrazin-2-yl)-4′H,6′H-spiro[piperidine-4,5′-pyrrolo[1,2-b]pyrazol]-4′-amine] as the compound, how does the IC50 [1] read?
**A.** Its IC50 is no more than 50 nM.

**Q.** And the IC50 [2]?
**A.** The IC50 was 100 to 500 nM.

**Q.** For `COc1cccc(Sc2cnc(N3CCC4(CC3)Cn3nccc3[C@H]4N)cn2)c1F` [Example 60, (S)-1-(5-((2-fluoro-3-methoxyphenyl)thio)pyrazin-2-yl)-4′H,6′H-spiro[piperidine-4,5′-pyrrolo[1,2-b]pyrazol]-4′-amine], which IC50 [1] is on record?
**A.** The IC50 was no more than 50 nM.

**Q.** What about the IC50 [2] of the same compound?
**A.** Its IC50 is less than 100 nM.

**Q.** With `N[C@@H]1c2ccnn2CC12CCN(c1cnc(Sc3cccc4ncccc34)cn1)CC2` [Example 61, (S)-1-(5-(quinolin-5-ylthio)pyrazin-2-yl)-4′H,6′H-spiro[piperidine-4,5′-pyrrolo[1,2-b]pyrazol]-4′-amine] as the compound, how does the IC50 [1] read?
**A.** The IC50 was no more than 50 nM.

**Q.** What about the IC50 [2] of the same compound?
**A.** The IC50 was less than 100 nM.

**Q.** How did the IC50 [1] turn out when `Cc1c(Cl)cncc1Sc1cnc(N2CCC3(CC2)Cn2nccc2[C@H]3N)cn1` [Example 62, (S)-1-(5-((5-chloro-4-methylpyridin-3-yl)thio)pyrazin-2-yl)-4′H,6′H-spiro[piperidine-4,5′-pyrrolo[1,2-b]pyrazol]-4′-amine] was run?
**A.** Its IC50 is no more than 50 nM.

**Q.** And the IC50 [2]?
**A.** The IC50 was 100 to 500 nM.

**Q.** Which results are given for `N[C@@H]1c2ccnn2CC12CCN(c1cnc(Sc3ccccc3Cl)cn1)CC2` [Example 63, (S)-1-(5-((2-chlorophenyl)thio)pyrazin-2-yl)-4′H,6′H-spiro[piperidine-4,5′-pyrrolo[1,2-b]pyrazol]-4′-amine]?
**A.** IC50 [1]: ≤ 50 nM; IC50 [2]: < 100 nM

**Q.** How did the IC50 [1] turn out when `COc1ccc(Sc2cnc(N3CCC4(CC3)Cn3nccc3[C@H]4N)cn2)c(F)c1` [Example 64, (S)-1-(5-((2-fluoro-4-methoxyphenyl)thio)pyrazin-2-yl)-4′H,6′H-spiro[piperidine-4,5′-pyrrolo[1,2-b]pyrazol]-4′-amine] was run?
**A.** Its IC50 is no more than 50 nM.

**Q.** And the IC50 [2]?
**A.** Its IC50 is less than 100 nM.

**Q.** Which IC50 [1] does the source give for `Cn1cnc2ccc(Sc3cnc(N4CCC5(CC4)Cn4nccc4[C@H]5N)cn3)cc21` [Example 65, (S)-1-(5-((1-methyl-1H-benzo[d]imidazol-6-yl)thio)pyrazin-2-yl)-4′H,6′H-spiro[piperidine-4,5′-pyrrolo[1,2-b]pyrazol]-4′-amine] here?
**A.** The IC50 was no more than 50 nM.

**Q.** And the IC50 [2]?
**A.** The IC50 was less than 100 nM.

**Q.** Which results are given for `N#Cc1ccc(Sc2cnc(N3CCC4(CC3)Cn3nccc3[C@H]4N)cn2)c2cccnc12` [Example 66, (S)-5-((5-(4′-amino-4′H,6′H-spiro[piperidine-4,5′-pyrrolo[1,2-b]pyrazol]-1-yl)pyrazin-2-yl)thio)quinoline-8-carbonitrile]?
**A.** IC50 [1]: ≤ 50 nM; IC50 [2]: < 100 nM

**Q.** What does the source list for `N[C@@H]1c2ccnn2CC12CCN(c1cnc(Sc3ccc(C(F)(F)F)c4ncccc34)cn1)CC2` [Example 67, (S)-1-(5-((8-(trifluoromethyl)quinolin-5-yl)thio)pyrazin-2-yl)-4′H,6′H-spiro[piperidine-4,5′-pyrrolo[1,2-b]pyrazol]-4′-amine]?
**A.** IC50 [1]: ≤ 50 nM; IC50 [2]: < 100 nM

**Q.** How did the IC50 [1] turn out when `N[C@@H]1c2ccnn2CC12CCN(c1cnc(Sc3ccc(F)c4ncccc34)cn1)CC2` [Example 68, (S)-1-(5-((8-fluoroquinolin-5-yl)thio)pyrazin-2-yl)-4′H,6′H-spiro[piperidine-4,5′-pyrrolo[1,2-b]pyrazol]-4′-amine] was run?
**A.** The IC50 was no more than 50 nM.

**Q.** And the IC50 [2]?
**A.** The IC50 was less than 100 nM.

**Q.** What does the source list for `N[C@@H]1c2ccnn2CC12CCN(c1cnc(Sc3cccc(C4CC4)c3F)cn1)CC2` [Example 69, (S)-1-(5-((3-cyclopropyl-2-fluorophenyl)thio)pyrazin-2-yl)-4′H,6′H-spiro[piperidine-4,5′-pyrrolo[1,2-b]pyrazol]-4′-amine]?
**A.** IC50 [1]: ≤ 50 nM; IC50 [2]: < 100 nM
